Read-outs that look alike come from different tables or passages of the source. Each block holds one molecule with its values, some of them ahead of it.
Experiments:
feeder insects [1] = system: feeder insects
in vivo = conditions: cricket
[2] = Lutein and zeaxanthin in diet versus lutein and zeaxanthin in feeder insect; conditions: cricket, whole feeder insect (dry matter), oral
Protocol: (§1) An experiment was performed to determine the levels of lutein and zeaxanthin in a feeder insect diet that would produce lutein and zeaxanthin levels in a feeder insect similar to those found in the wild.

feeder insects [3] = test: as above; conditions: 64.9 mg/kg lutein in diet
Protocol: as §1

feeder insects [4] = test: Vitamin E level in feeder insects fed diets with varying levels of vitamin E; format: in vivo, crickets; conditions: approximately 21 days, fasted 24 to 36 hours
Protocol: Captive insectivores fed with current methods have been shown in past studies to be deficient in vitamin E. Feeder insects which contain between approximately 50 and approximately 200 International Units (“IU”) of vitamin E per kilogram dry matter provide health benefits to captive insectivores. All references in this disclosure to concentrations in feeder insects will be based on dry matter measurements, unless otherwise specified. Experiments were performed to determine the levels of vitamin E in a feeder insect diet that would produce in the feeder insect the targeted levels between 50 and 200 IU of vitamin E per kilogram dry matter for consumption by an insectivore. In the experiments, feeder insects were fasted for 24 to 36 hours prior to analysis to ensure that food in the gut was eliminated completely so as not to affect the results. The feeder insects were provided the diet containing varying levels of vitamin E. Vitamin E analysis was then performed using the method as described by Cort, et. al., Vitamin E Content of Feedstuffs Determined by High-Performance Liquid Chromatography Fluorescence, JOURNAL OF AGRICULTURAL AND FOOD CHEMISTRY, Vol. 31, 1330-1333 (1983).
There is a direct relationship between the vitamin E content in the diet and the vitamin E content in the feeder insect. Since the feeder insects were fasted prior to analysis, and the results were collected when the feeder insects were grown to approximately two-thirds of adult-size within approximately 21 days after introduction of the diet, the vitamin E content in the feeder insect is a result of a change in the composition of the tissues of the feeder insect, rather than the consequence of food in the gut of the feeder insect. Regression analysis was performed on the data to establish a best-fit line defined by an equation FI=0.241*D+33.5, where FI is the vitamin E content of feeder insect and D is the vitamin E content in the feeder insect diet. […]

mealworms = test: Vitamin E content of mealworms fed a diet containing added vitamin E; format: in vivo
Protocol: There is a direct relationship between the vitamin E content in the diet and the vitamin E content in the feeder insect. Since the feeder insects were fasted prior to analysis, and the results were collected when the feeder insects were grown to approximately two-thirds of adult-size within approximately 21 days after introduction of the diet, the vitamin E content in the feeder insect is a result of a change in the composition of the tissues of the feeder insect, rather than the consequence of food in the gut of the feeder insect. Regression analysis was performed on the data to establish a best-fit line defined by an equation FI=0.241*D+33.5, where FI is the vitamin E content of feeder insect and D is the vitamin E content in the feeder insect diet. According to the present inventive method, with this established equation, a diet, fed to the feeder insect, having a vitamin E content of between approximately 69 and approximately 691 IU per kilogram produces the targeted 50 to 200 IU of vitamin E per kilogram dry matter in the feeder insect, respectively.

[5] = 3 milligrams of beta-carotene per kilogram of feeder insect diet
[6] = 65 milligrams of beta-carotene per kilogram of feeder insect diet

concentration at 21 days (in vivo; 0.2 mg/kg diet, Beta-carotene in Feeder Insect, 0.2 mg/kg beta-carotene in diet): 33.3 ng/g
concentration at 21 days (in vivo; 0.3 mg/kg diet, Beta-carotene in Feeder Insect, 0.3 mg/kg beta-carotene in diet): 33.3 ng/g
concentration at 21 days (in vivo; 3 mg beta-carotene per kg diet, beta-carotene in feeder insect by regression FI=219.2×D-2.92, 3 milligrams of beta-carotene per kilogram of feeder insect diet): 655 ng/g
concentration at 21 days (in vivo; 11.7 mg/kg diet, Beta-carotene in Feeder Insect, 11.7 mg/kg beta-carotene in diet): 2720 ng/g
concentration at 21 days (in vivo; 15.3 mg/kg diet, Beta-carotene in Feeder Insect, 15.3 mg/kg beta-carotene in diet): 3230 ng/g
concentration at 21 days (in vivo; 65 mg beta-carotene per kg diet, beta-carotene in feeder insect by regression FI=219.2×D-2.92, 65 milligrams of beta-carotene per kilogram of feeder insect diet): 14300 ng/g
concentration at 21 days (in vivo; beta-carotene in feeder insect by regression from Table C, diet with approximately 0.3 to approximately 1,496.4 milligrams of beta-carotene per kilogram): 62.8 to 328000 ng/g
concentration at 21 days (in vivo; beta-carotene in feeder insect by regression from Table C, diet with approximately 68.4 to approximately 365 milligrams of beta-carotene per kilogram): 15000 to 80000 ng/g
Molecule: CC1=C(/C=C/C(C)=C/C=C/C(C)=C/C=C/C=C(C)/C=C/C=C(C)/C=C/C2=C(C)CCCC2(C)C)C(C)(C)CCC1 [Beta-carotene, beta-carotene]
share of poultry's vitamin A requirement, by regression (feeder insects [1]; [5]): approximately 78%
share of the rat's vitamin A requirement, by regression (feeder insects [1]; [5]): approximately 51%
vitamin A yielded in feeder insect, by regression (feeder insects [1]; [5]): 1,173 IU of vitamin A per kilogram dry matter
share of poultry's vitamin A requirement, by regression (feeder insects [1]; [6]): approximately 1600%
share of the rat's vitamin A requirement, by regression (feeder insects [1]; [6]): approximately 1000%
vitamin A yielded in feeder insect, by regression (feeder insects [1]; [6]): 23,000 IU of vitamin A per kilogram dry matter

concentration at 21 days ([2]; 11.6 mg/kg diet): 33 ng/g
concentration at 21 days ([2]; 13.3 mg/kg diet): 333 ng/g
concentration at 21 days ([2]; 193.6 mg/kg diet): 11300 ng/g
Lutein in Feeder Insect (feeder insects [3]): 800 µg/kg dry matter
Molecule: CC1=C[C@H](O)CC(C)(C)[C@H]1/C=C/C(C)=C/C=C/C(C)=C/C=C/C=C(C)/C=C/C=C(C)/C=C/C1=C(C)C[C@@H](O)CC1(C)C [Lutein, lutein]

Vitamin E in Feeder Insect (feeder insects [4]; 31 IU/kg vitamin E in diet): 38.7 IU/kg dry matter
Vitamin E in Feeder Insect (feeder insects [4]; 210 IU/kg vitamin E in diet): 89.2 IU/kg dry matter
Vitamin E in Feeder Insect (feeder insects [4]; 360 IU/kg vitamin E in diet): 117.7 IU/kg dry matter
vitamin E content compared with mealworms fed a control diet (mealworms): more vitamin E
Molecule: vitamin E

— patent US9480278B2, “Diet for altering the nutrient composition of feeder insects” (Mark Finke LLC, priority 2012, dated 2016)
